These results are taken from patent publication US9340543B2, “Helquat derivatives, preparation thereof, and use thereof as medicaments” (USTAV ORGANICKE CHEMIE A BIOCHEMIE AKADEMIE VED CR, V.V.I., priority 2013, dated 2016).

As a reminder, the IC50 is the concentration that gives 50% inhibition.

The subject of one assay is HUVEC. The assay is described as follows: CellTiter-Glo luminescent cell viability assay (ATP quantification), HUVEC normal cells. The class given is cell-based, human. To be noted: 72 h treatment. As for the experimental part: (§1) Influence of the test compounds on viability (proliferation) of cell lines used was investigated in concentration range 0-100 μmol·l^−1.
Normal human endothelial cells from umbilical vein are adherent cells cultivated in plastic Petri dishes coated with collagen I. Into the cultivation medium (E-STIM™; BD Biosciences, cat. co. 355054) already containing 2% FBS (fetal bovine serum), hydrocortisone and heparin the following two further ingredients were added: epidermal growth factor (EGF, 5 μg) and mixture of factors facilitating growth of endothelial cells (ECGS, 100 mg). […] The cells were passaged after reaching 90% confluency by dissociation using 0.25% solution of trypsin/EDTA (1 ml; 3 min; 37° C.). After that 5 ml of complete cultivation medium E-STIM™ was added and the cells were centrifuged (180×g, 7 min), the pellet was resuspended, and transferred in the amount needed into a new Petri dish with fresh medium. The cells were used in experiments between the 3rd and the 8th passage after defreezing. Population doubling time of HUVEC cell line was 38 h under the cultivation conditions used.
(§2) In order to test the sensitivity of the cell lines towards the studied helquats, cytotoxity test for cell viability assessment based on ATP quantification in cell lysates was used (CellTiter-Glo® Luminescent Cell Viability Assay, Promega, cat. no. G7571). In this test, ATP in cell lysates is detected using luciferase reaction. Luminescence intensity correlates with the ATP level and thus with quantity of metabolically active (viable) cells. IC50 value serves as the output, that is the concentration of the test compound which leads to 50% reduction in number of viable cells as compared to control, untreated population. To this end, IC50 value reflects efficiency of the test compound with regard to the given cell line.
(§3) Cells in the exponential growth phase were seeded into a 96-well microtiter plate were plated at 3000 cells per well. Each well contained 90 μl of cell suspension. The next day, 10 μl of 10× concentrated test compound solutions were added. The effect of helquats was investigated in concentration range 1 to 100 μmol·l^−1 (e.g. 1; 2.5; 5; 7.5; 10; 15; 25; 50 and 100 μmol·l^−1). Apart from the section containing the concentration series of the test compound, each well contained 2 control columns, the first with pure medium (so called blank) and the second with cells in medium without the test compounds (control). Into wells containing controls and blanks, volume of solvent (water) equal to the volume of added compound solutions was added. After 72 h of incubation with the test compounds viability was determined according to the manufacturer's instructions. In short: microtiter well plate was left 30 min to reach the room temperature after it has been removed from the incubator. Then, into each well, 100 μl of the prepared detection agent was added. Next, the well plate was shaken for 2 min to complete the full lysis. Next, after the well had been left in the dark for 15 min, the luminescence was measured in each well using luminometer (Tecan Genios, Austria).
(§4) IC50 value represents concentration of the test compound, which leads to 50% reduction of viable cells (inhibition of cell growth) after 72 h of the treatment. Each helquat concentration was tested in triplicates in a IC50 quantification and at least 3 independent IC50 quantification experiments were performed. IC50 values over 100 μmol·l^−1 were obtained by extrapolation of data measured in concentration range 0-100 μmol·l^−1 for the given helquat.

The next assay has as its system NHDF-Ad. The assay is described as follows: CellTiter-Glo luminescent cell viability assay (ATP quantification), NHDF-Ad normal cells. The class given is cell-based. The settings on record: normal human dermal fibroblasts, 72 h treatment.
Description: as §1
Normal human dermal fibroblasts were cultivated without antibiotics in basal medium for fibroblasts (ATCC/LGC Standards, cat. no. PCS-201-030) with added “Fibroblast Growth Kit-Low serum” (ATCC/LGC Standards, cat. no. PCS-201-041) containing 2% FBS, L-glutamine, hydrocortisone, ascorbic acid, rh FGF beta, rh insulin. When 90% confluency was reached the fibroblasts were washed with sterile PBS (5 ml) and dissociated by addition of 0.25% solution of trypsin/EDTA (2 ml; 2 min; 37° C.). After that 5 ml of cultivation medium for fibroblasts was added and the cells were centrifuged (180×g, 7 min), the cell pellet was resuspended, and transferred in the amount needed into a new cultivation bottle with fresh medium. The same cell release procedure was applied when the cells were to be used in experiments. The cells were used in experiments between the 3rd and the 15th passage after defreeezing. Population doubling time of NHDF-Ad cell line was 33 h under the cultivation conditions used.
as §2, §3, §4
(In ATP-based viability assays light output follows the ATP content of the culture.)

For a further assay, the system named is CCRF-CEM. The assay is described as follows: CellTiter-Glo luminescent cell viability assay (ATP quantification), CCRF-CEM. The class given is cell-based. To be noted: acute lymphoblastic leukemia cells, 72 h treatment, viable cells by ATP luminescence. As for the experimental part:
as §1
Suspension cell line CCRF-CEM is a permanent in vitro culture of acute lymphoblastic leukemia. CCRF-CEM cell line was cultivated in RPMI 1640 medium (Sigma-Aldrich, cat. no. R8758) with addition of 2 mmol·l^−1 glutamine (Invitrogen, cat. no. 35050-038), 10% fetal bovine serum (FBS, Sigma-Aldrich, cat. no. F9665), 100 IU/ml peniciline, 100 μg/ml streptomycine (Sigma-Aldrich, cat. no. P0781). Passaging was performed 2-3× a week. Population doubling time of CCRF-CEM cell line was 20 h under the cultivation conditions used.
as §2, §3, §4

The test system of a further assay is MOLT-4. The assay is described as follows: CellTiter-Glo luminescent cell viability assay (ATP quantification), MOLT-4. To be noted: acute lymfoblastic leukemia cells, 72 h treatment, viable cells by ATP luminescence. The class given is cell-based. As for the experimental part:
as §1
Suspension cell line MOLT-4 is a permanent in vitro culture of acute lymfoblastic leukemia. Linie MOLT-4 cell line was cultivated in RPMI 1640 medium (Sigma-Aldrich, see above) with addition of 2 mmol glutamine (Invitrogen, see above), 10% fetal bovine serum (FBS, Sigma-Aldrich, see above), 100 IU/ml peniciline, 100 μg/ml streptomycine (Sigma-Aldrich, see above). Passaging was performed 2-3× a week. Population doubling time of […] cell line was 25 h under the cultivation conditions used.
as §2, §3, §4

Another assay concerns HL-60. The assay is described as follows: CellTiter-Glo luminescent cell viability assay (ATP quantification), HL-60. The class given is cell-based. The settings on record: acute promyelocytic leukemia cells, 72 h treatment, viable cells by ATP luminescence. The procedure: as §1
Suspension cell line HL-60 is a permanent in vitro culture of acute promyelocytic leukemia. HL-60 cell line was cultivated in RPMI 1640 medium (Sigma-Aldrich, see above) with addition of 2 mmol·l^−1 glutamine (Invitrogen, see above), 10% fetal bovine serum (FBS, Sigma-Aldrich, see above), 100 IU/ml peniciline, 100 μg/ml streptomycine (Sigma-Aldrich, see above). Passaging was performed 2-3× a week. Population doubling time of HL-60 cell line was 23 h under the cultivation conditions used.
as §2, §3, §4

Setting [1] is: viable cells by ATP luminescence, class symbols.

Molecules are shown by their SMILES. Some results are limits rather than exact numbers.

Consider `Cc1c(C)c2c(c3c1CC[n+]1ccc(/C=C/c4ccc(N(C)C)cc4)cc1-3)-c1c3ccccc3cc[n+]1CC2` [(M)-1, (M)-(E)-13-(4-(dimethylamino)styryl)-6,7-dimethyl-4,5,8,9-tetrahydroiso-quinolino[1,2-a]pyrido[1,2-k][2,9]phenanthroline-3,10-diium trifluoromethanesulfonate], for which the IC50 with HUVEC (normal human endothelial cells, numeric bound, values over 100 obtained by extrapolation of data measured at 0-100 μmol·l−1) was above 150 µM; in the assay with NHDF-Ad (setting [1]), 51 to 150 µM; in the assay on CCRF-CEM, below 10 µM; with MOLT-4, below 10 µM; in the assay with HL-60, below 10 µM.

For `COc1ccc(/C=C/c2cc[n+]3c(c2)-c2c(c(C)c(C)c4c2-c2c5ccccc5cc[n+]2CC4)CC3)cc1` [(M)-6, (M)-(E)-13-(4-methoxystyryl)-6,7-dimethyl-4,5,8,9-tetrahydroisoquinolino[1,2-a]pyrido[1,2-k][2,9]phenanthroline-3,10-diium trifluoromethanesulfonate], the IC50 with HUVEC (HUVEC, normal human endothelial cells, numeric bound, values over 100 obtained by extrapolation of data measured at 0-100 μmol·l−1) is above 150 µM; in the assay with NHDF-Ad (Fibroblast, numeric bound, values over 100 obtained by extrapolation of data measured at 0-100 μmol·l−1) it was above 150 µM; in the assay on CCRF-CEM (Homo sapiens, CCRF-CEM), 11 to 50 µM; in the assay with MOLT-4 (Homo sapiens, MOLT-4), 11 to 50 µM; in the assay with HL-60 (Homo sapiens, HL-60), 11 to 50 µM.

As for `COc1ccc2cc(/C=C/c3cc[n+]4c(c3)-c3c(c(C)c(C)c5c3-c3c6ccccc6cc[n+]3CC5)CC4)ccc2c1` [(M)-7, (M)-(E)-13-(2-(6-methoxynaphthalene-2-yl)vinyl)-6,7-dimethyl-4,5,8,9-tetrahydroisoquinolino[1,2-a]pyrido[1,2-k][2,9]phenanthroline-3,10-diium trifluoromethanesulfonate], the IC50 in the assay on HUVEC (normal human endothelial cells from umbilical vein, viable cells by ATP luminescence, class symbols) was 51 to 150 µM; in the assay with NHDF-Ad (setting [1]) it was 51 to 150 µM; in the assay on CCRF-CEM, below 10 µM; in the assay with MOLT-4 it was below 10 µM; in the assay on HL-60, below 10 µM.
